Source: the Kinase Knowledgebase extract (Sharma et al. 2016)
Values joined by “and” are separate entries in the source; they are usually repeats but may differ in a detail not shown here. Equal values may be shown once.

Key:
MAPK14 (human) [1] = molecular target: MAPK14 (human) (UniProt Q16539); assay: Enzyme Assay
EGFR (human) [2] = molecular target: EGFR (human) (UniProt P00533)
EGFR (human) [3] = molecular target: EGFR (human) (UniProt P00533); remark: listed apart in the source
ROCK2 (human) [4] = molecular target: ROCK2 (human) (UniProt O75116)
ROCK2 (human), sequence (O75116 whole entry, looked up): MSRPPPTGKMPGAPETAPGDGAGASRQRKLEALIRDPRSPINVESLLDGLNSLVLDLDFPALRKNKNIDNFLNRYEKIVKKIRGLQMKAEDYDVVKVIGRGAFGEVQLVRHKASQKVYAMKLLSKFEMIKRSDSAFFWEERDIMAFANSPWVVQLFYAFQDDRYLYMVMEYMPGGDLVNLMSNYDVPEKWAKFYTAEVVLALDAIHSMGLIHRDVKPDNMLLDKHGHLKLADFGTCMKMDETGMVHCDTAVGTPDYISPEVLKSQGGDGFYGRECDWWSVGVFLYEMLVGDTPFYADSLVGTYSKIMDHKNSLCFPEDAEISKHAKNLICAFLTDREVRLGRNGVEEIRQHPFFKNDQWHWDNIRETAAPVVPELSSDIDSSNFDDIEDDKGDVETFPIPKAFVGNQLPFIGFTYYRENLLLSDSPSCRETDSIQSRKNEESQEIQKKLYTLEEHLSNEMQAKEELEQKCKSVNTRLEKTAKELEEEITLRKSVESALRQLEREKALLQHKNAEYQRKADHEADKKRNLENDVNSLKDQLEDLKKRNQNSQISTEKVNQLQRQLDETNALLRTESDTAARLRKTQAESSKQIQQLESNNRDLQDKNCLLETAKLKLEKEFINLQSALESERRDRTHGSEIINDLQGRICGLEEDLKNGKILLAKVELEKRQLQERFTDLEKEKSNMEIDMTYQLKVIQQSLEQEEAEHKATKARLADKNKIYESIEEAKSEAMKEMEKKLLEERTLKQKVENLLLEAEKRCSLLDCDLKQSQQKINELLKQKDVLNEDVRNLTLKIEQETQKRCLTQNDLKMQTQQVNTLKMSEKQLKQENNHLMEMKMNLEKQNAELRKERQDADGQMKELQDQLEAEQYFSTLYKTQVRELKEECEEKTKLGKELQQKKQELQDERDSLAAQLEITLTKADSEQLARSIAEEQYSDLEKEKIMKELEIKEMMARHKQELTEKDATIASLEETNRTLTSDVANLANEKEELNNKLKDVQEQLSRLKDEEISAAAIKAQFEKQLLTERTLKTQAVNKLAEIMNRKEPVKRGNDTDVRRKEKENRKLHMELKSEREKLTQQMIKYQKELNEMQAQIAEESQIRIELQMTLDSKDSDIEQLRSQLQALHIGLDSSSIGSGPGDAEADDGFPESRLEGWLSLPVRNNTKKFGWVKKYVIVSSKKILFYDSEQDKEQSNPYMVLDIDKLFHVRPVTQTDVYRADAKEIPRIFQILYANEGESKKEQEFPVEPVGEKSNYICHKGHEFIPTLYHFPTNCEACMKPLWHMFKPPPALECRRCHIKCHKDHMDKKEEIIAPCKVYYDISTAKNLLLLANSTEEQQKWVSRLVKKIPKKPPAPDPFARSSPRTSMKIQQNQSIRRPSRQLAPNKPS

EGFR (human) [5] = molecular target: EGFR (human) (UniProt P00533); remark: listed apart in the source
EGFR (human) [6] = molecular target: EGFR (human) (UniProt P00533); details: a431
EGFR (human) [7] = molecular target: EGFR (human) (UniProt P00533); remark: listed apart in the source
EGFR (human) [8] = molecular target: EGFR (human) (UniProt P00533); details: a431; remark: listed apart in the source
EGFR [9] = molecular target: EGFR (UniProt P00533)
EGFR, sequence (P00533 whole entry, looked up): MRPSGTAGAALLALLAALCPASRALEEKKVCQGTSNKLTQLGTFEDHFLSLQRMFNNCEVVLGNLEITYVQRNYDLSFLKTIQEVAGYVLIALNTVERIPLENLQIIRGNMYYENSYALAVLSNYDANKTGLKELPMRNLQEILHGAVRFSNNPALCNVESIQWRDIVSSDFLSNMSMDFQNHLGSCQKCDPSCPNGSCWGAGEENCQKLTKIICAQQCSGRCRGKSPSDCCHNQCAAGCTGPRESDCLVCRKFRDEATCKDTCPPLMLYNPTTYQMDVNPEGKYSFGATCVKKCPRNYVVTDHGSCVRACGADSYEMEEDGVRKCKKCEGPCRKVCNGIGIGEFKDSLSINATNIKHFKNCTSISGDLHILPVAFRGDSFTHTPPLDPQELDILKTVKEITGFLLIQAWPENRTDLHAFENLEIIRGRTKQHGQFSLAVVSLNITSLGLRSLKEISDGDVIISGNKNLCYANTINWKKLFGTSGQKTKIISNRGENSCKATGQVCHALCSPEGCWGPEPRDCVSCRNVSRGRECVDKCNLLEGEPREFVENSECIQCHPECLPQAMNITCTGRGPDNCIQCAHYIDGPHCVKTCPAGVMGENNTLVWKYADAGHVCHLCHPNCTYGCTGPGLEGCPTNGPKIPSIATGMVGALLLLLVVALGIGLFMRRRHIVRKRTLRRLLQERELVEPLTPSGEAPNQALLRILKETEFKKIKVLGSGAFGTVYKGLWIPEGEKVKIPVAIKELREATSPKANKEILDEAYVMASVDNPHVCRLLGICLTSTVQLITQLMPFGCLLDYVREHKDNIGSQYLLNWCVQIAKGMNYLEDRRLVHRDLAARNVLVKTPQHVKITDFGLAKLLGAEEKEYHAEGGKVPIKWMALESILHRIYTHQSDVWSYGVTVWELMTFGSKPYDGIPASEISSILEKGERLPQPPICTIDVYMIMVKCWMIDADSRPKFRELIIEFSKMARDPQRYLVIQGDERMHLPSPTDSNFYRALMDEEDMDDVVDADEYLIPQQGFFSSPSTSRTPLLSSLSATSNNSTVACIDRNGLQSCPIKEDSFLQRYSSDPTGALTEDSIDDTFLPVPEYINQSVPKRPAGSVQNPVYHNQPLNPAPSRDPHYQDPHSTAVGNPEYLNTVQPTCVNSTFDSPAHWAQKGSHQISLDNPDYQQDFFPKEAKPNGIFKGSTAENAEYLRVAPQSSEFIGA

MAPK14 (human) [10] = molecular target: MAPK14 (human) (UniProt Q16539); assay: Enzyme Assay; remark: listed apart in the source
EGFR [11] = molecular target: EGFR (UniProt P00533); remark: listed apart in the source
MAPK14 (human) [12] = molecular target: MAPK14 (human) (UniProt Q16539); assay: p38 --- IL-1 Inhibition (PBMC cells)
MAPK14 (human) [13] = molecular target: MAPK14 (human) (UniProt Q16539); assay: p38 --- TNF Inhibition (PBMC cells)
EGFR (human) [14] = molecular target: EGFR (human) (UniProt P00533); details: a431; remark: listed apart in the source
EGFR (human) [15] = molecular target: EGFR (human) (UniProt P00533); details: a549
EGFR (human) [16] = molecular target: EGFR (human) (UniProt P00533); remark: listed apart in the source
EGFR [17] = molecular target: EGFR (UniProt P00533); remark: listed apart in the source
MAPK14 = MAPK14 (UniProt Q16539); assay: p38-alpha 2 Inhibition
MAPK14, sequence (Q16539 whole entry, looked up): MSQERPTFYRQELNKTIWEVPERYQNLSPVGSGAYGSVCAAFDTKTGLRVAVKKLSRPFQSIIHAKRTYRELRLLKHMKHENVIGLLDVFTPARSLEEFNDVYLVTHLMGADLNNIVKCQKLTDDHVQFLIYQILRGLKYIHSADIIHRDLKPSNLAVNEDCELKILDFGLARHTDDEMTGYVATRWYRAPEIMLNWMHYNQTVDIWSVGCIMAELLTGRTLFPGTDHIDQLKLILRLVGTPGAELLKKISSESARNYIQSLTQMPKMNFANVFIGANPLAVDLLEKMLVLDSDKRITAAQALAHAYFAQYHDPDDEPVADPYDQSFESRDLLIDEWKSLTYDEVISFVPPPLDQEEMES

EGFR (human) [18] = molecular target: EGFR (human) (UniProt P00533); remark: listed apart in the source
ROCK2 (human) [19] = molecular target: ROCK2 (human) (UniProt O75116); assay: Enzyme Assay
ROCK2 (human) [20] = molecular target: ROCK2 (human) (UniProt O75116); assay: Enzyme Assay; remark: listed apart in the source
EGFR (human) [21] = molecular target: EGFR (human) (UniProt P00533); remark: listed apart in the source
CDK2 (human) [22] = molecular target: CDK2 (human) (UniProt P24941); assay: Enzyme Assay
CDK2 (human) [23] = molecular target: CDK2 (human) (UniProt P24941); assay: Enzyme Assay; remark: listed apart in the source
EGFR (mouse) = EGFR (mouse) (UniProt P00533); details: balb/mk cells
[24] = molecular target: PIK3CA (human), P42336 [Wild-Type]; assay: Assessment of Proliferation of NZB5 Cells Expressing Wild-Type PIK3CA Kinase
[25] = test system: MAPK14 (sprague-dawley rat); assay: p38-mediated TNF-alpha Inhibition (Sprauge-Dawley Rats); details: dose or concentration not given here

EGFR (human), sequence (P00533 whole entry, looked up): as the sequence (P00533 whole entry, looked up) above
MAPK14 (human), sequence (Q16539 whole entry, looked up): as the sequence (Q16539 whole entry, looked up) above

Oc1c(-c2ccc(F)cc2)c(-c2ccncc2)nn1-c1ccc(Cl)cc1
activity (MAPK14 (human) [1]; 1.0 µM): 3%
activity (MAPK14 (human) [1]; 10.0 µM): 0%
activity (EGFR (human) [2]; 1.0 µM): 54%
activity (EGFR (human) [2]; 10.0 µM): 6%

Nc1nc(Nc2cccc(Cl)c2)c2c(n1)[nH]c1ccccc12
IC50 (EGFR (human) [3]): 6 nM

COc1cccc([C@@H](C)NC(=O)c2ccc3c(c2)oc2c(C)nccc23)c1
IC50 (ROCK2 (human) [4]): 2.66 nM

COCC=CC(=O)Nc1ccc2ncnc(Nc3cccc(Br)c3)c2c1
IC50 (EGFR (human) [5]): 1130 nM
IC50 (EGFR (human) [6]): 8500 nM

C=CC(=O)Nc1ccc(-n2nc(-c3ccc(Cl)c(Cl)c3)c3c(N)ncnc32)cc1
IC50 (EGFR (human) [7]): < 100 nM

C[C@H](NC(=O)c1ccc(S(=O)(=O)Oc2ccc(/C=C/[N+](=O)[O-])cc2)cc1)C(=O)N[C@@H](C)C(=O)OC(C)(C)C
IC50 (EGFR (human) [8]): 37500 nM

CCn1cnc2c(Nc3cccc(Cl)c3)nc(N[C@H]3CC[C@@H](N)CC3)nc21
IC50 (EGFR [9]): 5300 nM

Cc1cccc(COc2nc(C)n(-c3cc(-c4ccnc(C(C)(C)O)n4)ccc3C)c(=O)c2Cl)n1
IC50 (MAPK14 (human) [1]): 184 nM
IC50 (MAPK14 (human) [10]): > 30000 nM and 3300 nM

COc1ccc(OC)c(COc2ccc(O)c(C(=O)O)c2)c1
IC50 (EGFR [11]): > 100000 nM

Cc1ccc(Sc2ccc3c(-c4c(Cl)cccc4Cl)c(=O)ncn3n2)cc1
IC50 (MAPK14 (human) [12]): 350 nM
IC50 (MAPK14 (human) [13]): 870 nM

COc1cc(O)c2c(=O)n(-c3cccc(C(=O)NC4CCCC4)c3)ccc2c1
IC50 (EGFR (human) [14]): 2250 nM
IC50 (EGFR (human) [15]): 14200 nM
IC50 (EGFR (human) [16]): 1380 nM

COc1cc2ncnc(Nc3ccc(F)c(Cl)c3)c2cc1OCCN1CCOCC1
IC50 (EGFR [17]): 10 nM

COc1cc2ncnc(Nc3ccc(F)c(Cl)c3)c2cc1OCCN1CCN(C)CC1
IC50 (EGFR [17]): 10 nM

NC(=O)c1ccccc1NC(=O)Nc1ccc(Cl)c(Cl)c1
IC50 (MAPK14): 100 nM

CN(C/C=C/C(=O)Nc1cccc(-n2nc(-c3ccc(Cl)cc3)c3c(N)ncnc32)c1)C1CC1
IC50 (EGFR (human) [7]): 100 to 1000 nM

COC(=O)Nc1ccc(Nc2ncnc3cc(OC)c(OC)cc23)cc1
IC50 (EGFR (human) [18]): 6900 nM

Nc1nc(Nc2ccccc2)c2c(n1)[nH]c1ccccc12
IC50 (EGFR (human) [3]): 147 nM

CC(C)OC(=O)Cc1cccc(NC(=O)c2cccc(-c3cc(C(=O)Nc4ccncc4F)ccc3CN)c2)c1
IC50 (ROCK2 (human) [19]): < 1 nM
IC50 (ROCK2 (human) [20]): < 1 nM

Cc1cc(N2CCN(CCC#N)CC2)cc2[nH]c(-c3c(NC[C@@H](O)c4ccccc4Cl)cc[nH]c3=O)nc12
IC50 (EGFR (human) [21]): > 10000 nM

CO[C@H]1[C@@H](OC)C[C@H](C)[C@@H](OC)C2=CC(=O)C=C(NC(=O)/C(C)=C/C=C/[C@H](OC)[C@H](OC(N)=O)/C(C)=C/[C@@H]1C)C2=O
activity (CDK2 (human) [22]; 1.0 µM): 104%
activity (CDK2 (human) [22]; 10.0 µM): 91%
activity (CDK2 (human) [23]; 1.0 µM): 138%
activity (CDK2 (human) [23]; 10.0 µM): 83%

COC(=O)c1cc(OCc2cc(OC)ccc2OC)ccc1O
IC50 (EGFR [11]): > 100000 nM

O=C(O)C[C@@H](NC(=O)c1ccc2c(c1)OCc1cnccc1-2)c1ccccc1
IC50 (ROCK2 (human) [4]): 516 nM

C[C@H](NC(=O)c1ccc(S(=O)(=O)Oc2ccc(/C=C/[N+](=O)[O-])cc2)cc1)C(=O)N[C@@H](C)C(=O)NCCN
IC50 (EGFR (mouse)): > 50000 nM

Cc1cc(N2CCOCC2)cc2[nH]c(-c3c(NC[C@@H](O)c4ccccc4Cl)cc[nH]c3=O)nc12
IC50 (EGFR (human) [21]): 1600 nM

C[C@H](NC(=O)[C@H](C)NC(=O)c1ccc(S(=O)(=O)Oc2ccc(/C=C/[N+](=O)[O-])cc2)cc1)C(=O)O
IC50 (EGFR (mouse)): > 50000 nM

O=C(C=CCN1CCOCC1)Nc1ccc2ncnc(Nc3cccc(Br)c3)c2c1
IC50 (EGFR (human) [5]): 74 nM
IC50 (EGFR (human) [6]): 1890 nM

NCc1ccc(C(=O)Nc2ccncc2F)cc1-c1cccc(C(=O)Nc2ccc(C(=O)O)cc2)c1
IC50 (ROCK2 (human) [19]): 1 nM
IC50 (ROCK2 (human) [20]): 4.1 nM

Oc1cccc2c1nc(C(F)F)n2-c1nc(N2CCOCC2)cc(N2CCOCC2)n1
IC50 [24]: 100 nM

COc1cc(OC)c2c(=O)n(-c3cccc(C(=O)NC4CCCC4)c3)ccc2c1
IC50 (EGFR (human) [14]): 15300 nM
IC50 (EGFR (human) [15]): 18600 nM
IC50 (EGFR (human) [16]): 2120 nM

O=C(Nc1cc(C2[C@H]3C[C@@H]4C[C@@H](C[C@H]2C4)C3)no1)Nc1cccc(Cl)c1Cl (some centres not stated)
inhibition (MAPK14; concentration not given here): 9%

CCn1cnc2c(Nc3cccc(Cl)c3)nc(N[C@@H]3CCCC[C@@H]3N)nc21
IC50 (EGFR [9]): > 10000 nM

Cc1ccc(-c2ccnc(C(C)(C)O)n2)cc1-n1c(C)nc(OCc2ncc(F)cc2F)c(Cl)c1=O
IC50 (MAPK14 (human) [1]): 40 nM
IC50 (MAPK14 (human) [10]): 566 nM

Cc1cccc(Sc2ccc3c(-c4c(Cl)cccc4Cl)c(=O)ncn3n2)c1
IC50 (MAPK14 (human) [12]): 210 nM
IC50 (MAPK14 (human) [13]): 280 nM

CNCC#Cc1cccc(C(=O)c2cnn(-c3ccc(F)cc3)c2N)c1
inhibition [25]: 86%
